Measurements from ChEMBL document CHEMBL1201862, “PubChem BioAssay data set” (2004).
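These data come from cells grown in 96-well plates and exposed to compound for 48 hours at five concentrations. At the GI50, growth is halved.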 Active and inactive are the calls of the source. Cut-off read from the data, not from the text of the source: active = GI50 up to about 1.1 µM and inactive = higher.

Tests used:
Experiment in all cases: inhibition of tumour cell growth, NCI panel, 48 h
786-0 = system: 786-0
Hs-578T = system: Hs-578T
SF-268 = system: SF-268
MDA-MB-435 = system: MDA-MB-435
SR = system: SR
BT-549 = system: BT-549
KM12 = system: KM12
RXF 393 = system: RXF 393
HOP-92 = system: HOP-92
SN12C = system: SN12C
LOX IMVI = system: LOX IMVI
HT-29 = system: HT-29
SK-MEL-28 = system: SK-MEL-28
NCI-H522 = system: NCI-H522
M14 = system: M14
MOLT-4 = system: MOLT-4
Malme-3M = system: Malme-3M
COLO 205 = system: COLO 205
SNB-75 = system: SNB-75

Row | Compound | GI50 (786-0) | GI50 (Hs-578T) | GI50 (SF-268) | GI50 (MDA-MB-435) | GI50 (SR) | GI50 (BT-549) | GI50 (KM12) | GI50 (RXF 393) | GI50 (HOP-92) | GI50 (SN12C) | GI50 (LOX IMVI) | GI50 (HT-29) | GI50 (SK-MEL-28) | GI50 (NCI-H522) | GI50 (M14) | GI50 (MOLT-4) | GI50 (Malme-3M) | GI50 (COLO 205) | GI50 (SNB-75)
1 | CC(C)(C)n1c(=O)n(C(=O)C(Cl)(Cl)Cl)n(C(=O)C(Cl)(Cl)Cl)c1=O | > 100 µM (inactive) | > 100 µM (inactive) | > 100 µM (inactive) | > 100 µM (inactive) | > 100 µM (inactive) | > 100 µM (inactive) | > 100 µM (inactive) | > 100 µM (inactive) | > 100 µM (inactive) | > 100 µM (inactive) | > 100 µM (inactive) | > 100 µM (inactive) | > 100 µM (inactive) | > 100 µM (inactive) | > 100 µM (inactive) | > 100 µM (inactive) | > 100 µM (inactive) | > 100 µM (inactive) | 
2 | O=C(/C=C/c1ccc2c(c1)OCO2)Cc1nc2ncccc2[nH]c1=O | 75.3 µM (inactive) | 36.5 µM (inactive) | 49.7 µM (inactive) | > 100 µM (inactive) | 77.1 µM (inactive) | > 100 µM (inactive) | 61.1 µM (inactive) | 49.4 µM (inactive) | > 100 µM (inactive) | > 100 µM (inactive) | 8.53 µM (inactive) | > 100 µM (inactive) | > 100 µM (inactive) | 60.7 µM (inactive) | > 100 µM (inactive) | > 100 µM (inactive) | > 100 µM (inactive) | 70.3 µM (inactive) | 
3 | O=S(=O)(N=S(c1ccc(Cl)cc1)c1ccc(Cl)cc1)c1ccccc1 | > 100 µM (inactive) | 56.9 µM (inactive) | > 100 µM (inactive) | 37.9 µM (inactive) | 37.5 µM (inactive) | > 100 µM (inactive) | 96.6 µM (inactive) | 65.3 µM (inactive) | > 100 µM (inactive) | 9.95 µM (inactive) | > 100 µM (inactive) | 88.7 µM (inactive) | > 100 µM (inactive) | 70.3 µM (inactive) | > 100 µM (inactive) | 33.8 µM (inactive) | > 100 µM (inactive) | > 100 µM (inactive) | > 100 µM (inactive)
4 | COc1ccc(-c2cc(-c3cc(F)c(Cl)cc3Cl)on2)cc1OC | 63.8 µM (inactive) | 67.1 µM (inactive) | 34 µM (inactive) | 1.8 µM (inactive) | 1.16 µM (inactive) | 33 µM (inactive) | 14.3 µM (inactive) | 8.07 µM (inactive) | 30.1 µM (inactive) | 32.4 µM (inactive) | 31.2 µM (inactive) | 22.5 µM (inactive) | 28.3 µM (inactive) | 15.6 µM (inactive) | 24.9 µM (inactive) | 5.82 µM (inactive) | 45.3 µM (inactive) | 17.4 µM (inactive) | 28.9 µM (inactive)
5 | CC[C@H]1C=CCC[C@@]2(C[C@@H]3CC[C@@H]4[C@H](C(=O)OCCCCCCCCCCCCCCCC(=O)N(CCCNC(C)=O)C[C@H](CCNC(C)=O)OC(C)=O)[C@]5(CCC[C@@H](C)O5)NC(=[N+]34)N2)O1 | 0.109 µM (active) | 0.391 µM (active) | 0.187 µM (active) | 0.0432 µM (active) | 0.0394 µM (active) | 0.453 µM (active) | 0.0847 µM (active) | 0.187 µM (active) | 0.0659 µM (active) | 0.516 µM (active) | 0.0277 µM (active) | 0.0344 µM (active) | 0.757 µM (active) | 0.0331 µM (active) | 0.129 µM (active) | 0.0328 µM (active) | 0.21 µM (active) | 0.0395 µM (active) | 
6 | CCOc1cc(NC(C)=O)ccc1C(=O)NNS(=O)(=O)c1ccc(NC(C)=O)cc1 | 42.3 µM (inactive) | 41.7 µM (inactive) | 88.7 µM (inactive) | 27.9 µM (inactive) | 13.6 µM (inactive) | > 100 µM (inactive) | 41.5 µM (inactive) | 76.7 µM (inactive) | 61.9 µM (inactive) | 46.5 µM (inactive) | 55.7 µM (inactive) | 47.8 µM (inactive) | 99.1 µM (inactive) | 37.4 µM (inactive) | 56 µM (inactive) | 37.2 µM (inactive) | 86.7 µM (inactive) | 24.7 µM (inactive) | 72.9 µM (inactive)
7 | Nc1ccc(-c2cssc2=S)cc1 | 49 µM (inactive) | 36.3 µM (inactive) | 42.7 µM (inactive) | 35.1 µM (inactive) | 2.64 µM (inactive) | 36.1 µM (inactive) | 42 µM (inactive) | 29.8 µM (inactive) | 56.2 µM (inactive) | 31.1 µM (inactive) | 41.1 µM (inactive) | 51.9 µM (inactive) | 49.7 µM (inactive) | 26.9 µM (inactive) | 75.7 µM (inactive) | 1.17 µM (inactive) | 34 µM (inactive) | 42.2 µM (inactive) | 
8 | C#CCn1c(=O)ccn(/C(=C/C(=O)OCC)C(=O)OCC)c1=O | 3.41 µM (inactive) | 18.7 µM (inactive) | 13.1 µM (inactive) | 10.9 µM (inactive) | 3.45 µM (inactive) | 10.5 µM (inactive) | 17.4 µM (inactive) | 1.36 µM (inactive) | 2.38 µM (inactive) | 9.08 µM (inactive) | 13.9 µM (inactive) | 2.17 µM (inactive) | 7.41 µM (inactive) |  | 4.05 µM (inactive) | 3.43 µM (inactive) | 1.96 µM (inactive) | 1.81 µM (inactive) | 20.8 µM (inactive)
9 | COC(COC(=O)N1CCN(C=O)CC1)C1=C(N2CC2)C(=O)C(C)=C(N2CC2)C1=O (stereo not drawn) | 0.0644 µM (active) | 1.26 µM (inactive) | 0.12 µM (active) | 0.424 µM (active) | < 0.01 µM (active) | 0.455 µM (active) | 0.551 µM (active) | 0.228 µM (active) | 0.198 µM (active) | 0.0336 µM (active) | 0.0664 µM (active) | 0.189 µM (active) | 1.27 µM (inactive) | 0.107 µM (active) | 0.202 µM (active) | 0.138 µM (active) | 0.336 µM (active) | 0.272 µM (active) | 
10 | COc1ccc(OC)c2sc(N3C(=O)/C(=C/c4ccc(Cl)cc4)N=C3c3ccccc3)nc12 | 73.3 µM (inactive) | > 100 µM (inactive) | 98.9 µM (inactive) | 30.8 µM (inactive) | 43.4 µM (inactive) | > 100 µM (inactive) | 60 µM (inactive) | 78.5 µM (inactive) | 49.5 µM (inactive) | > 100 µM (inactive) | 34.2 µM (inactive) | > 100 µM (inactive) | > 100 µM (inactive) | 48.9 µM (inactive) | > 100 µM (inactive) | 24.7 µM (inactive) | > 100 µM (inactive) | > 100 µM (inactive) | 89.3 µM (inactive)
11 | Nc1c2c(nc3ccccc13)-c1ccccc1NCCC2 | 16.7 µM (inactive) | 56.5 µM (inactive) | 45.1 µM (inactive) | 22 µM (inactive) | 17.9 µM (inactive) | 50.5 µM (inactive) | 35.2 µM (inactive) | 16.1 µM (inactive) | 13.9 µM (inactive) | 33.3 µM (inactive) | 16.8 µM (inactive) | 23 µM (inactive) | 18.2 µM (inactive) | 26.9 µM (inactive) | 17.4 µM (inactive) | 24.6 µM (inactive) | 18 µM (inactive) | 16.8 µM (inactive) | 43.4 µM (inactive)
